BindingDB's records for doi:10.1111/cbdd.12243 (Shandong Institute of Pharmaceutical Industry, 2014)

Key:
Test in all cases: Z-LYTE biochemical assay
Conditions in all cases: 25 °C
[1] = biological target: Tyrosine-protein kinase ABL1 (Homo sapiens, UniProt P00519)
Protocol: (§1) The reaction was stopped by the addition of 5 µL stop reagent.

[2] = biological target: Vascular endothelial growth factor receptor 2 (Homo sapiens, UniProt P35968)
Protocol: as §1

[3] = biological target: Receptor protein-tyrosine kinase (Homo sapiens, UniProt Q504U8)
Chain of Receptor protein-tyrosine kinase (Q504U8 whole entry): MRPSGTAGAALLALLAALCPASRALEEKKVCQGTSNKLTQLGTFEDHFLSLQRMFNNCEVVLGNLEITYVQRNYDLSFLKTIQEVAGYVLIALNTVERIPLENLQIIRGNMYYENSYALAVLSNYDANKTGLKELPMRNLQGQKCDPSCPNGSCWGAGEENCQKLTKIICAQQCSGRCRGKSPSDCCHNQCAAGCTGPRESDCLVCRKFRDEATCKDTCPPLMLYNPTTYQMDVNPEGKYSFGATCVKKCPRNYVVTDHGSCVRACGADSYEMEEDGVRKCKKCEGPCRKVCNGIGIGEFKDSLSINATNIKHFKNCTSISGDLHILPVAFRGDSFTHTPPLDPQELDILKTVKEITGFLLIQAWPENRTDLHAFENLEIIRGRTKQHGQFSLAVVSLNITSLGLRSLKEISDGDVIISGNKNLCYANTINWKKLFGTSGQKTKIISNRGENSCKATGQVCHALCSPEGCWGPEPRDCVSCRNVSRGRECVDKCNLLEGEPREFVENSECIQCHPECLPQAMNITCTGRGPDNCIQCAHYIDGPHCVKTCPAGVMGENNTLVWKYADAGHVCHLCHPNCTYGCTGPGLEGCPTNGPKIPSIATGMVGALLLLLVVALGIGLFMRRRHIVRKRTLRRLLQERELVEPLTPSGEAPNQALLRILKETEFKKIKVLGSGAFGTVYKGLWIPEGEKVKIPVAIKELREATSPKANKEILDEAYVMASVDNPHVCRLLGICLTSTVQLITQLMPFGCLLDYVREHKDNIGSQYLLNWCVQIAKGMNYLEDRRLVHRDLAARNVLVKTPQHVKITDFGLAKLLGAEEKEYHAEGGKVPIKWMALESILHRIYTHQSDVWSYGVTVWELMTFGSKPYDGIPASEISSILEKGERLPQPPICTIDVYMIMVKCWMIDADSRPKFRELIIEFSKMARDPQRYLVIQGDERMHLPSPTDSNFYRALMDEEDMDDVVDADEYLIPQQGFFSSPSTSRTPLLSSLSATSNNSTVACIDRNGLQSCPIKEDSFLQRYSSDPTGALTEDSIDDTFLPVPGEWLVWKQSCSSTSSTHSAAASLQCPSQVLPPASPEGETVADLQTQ
Protocol: as §1

Chain of Vascular endothelial growth factor receptor 2 (P35968 whole entry): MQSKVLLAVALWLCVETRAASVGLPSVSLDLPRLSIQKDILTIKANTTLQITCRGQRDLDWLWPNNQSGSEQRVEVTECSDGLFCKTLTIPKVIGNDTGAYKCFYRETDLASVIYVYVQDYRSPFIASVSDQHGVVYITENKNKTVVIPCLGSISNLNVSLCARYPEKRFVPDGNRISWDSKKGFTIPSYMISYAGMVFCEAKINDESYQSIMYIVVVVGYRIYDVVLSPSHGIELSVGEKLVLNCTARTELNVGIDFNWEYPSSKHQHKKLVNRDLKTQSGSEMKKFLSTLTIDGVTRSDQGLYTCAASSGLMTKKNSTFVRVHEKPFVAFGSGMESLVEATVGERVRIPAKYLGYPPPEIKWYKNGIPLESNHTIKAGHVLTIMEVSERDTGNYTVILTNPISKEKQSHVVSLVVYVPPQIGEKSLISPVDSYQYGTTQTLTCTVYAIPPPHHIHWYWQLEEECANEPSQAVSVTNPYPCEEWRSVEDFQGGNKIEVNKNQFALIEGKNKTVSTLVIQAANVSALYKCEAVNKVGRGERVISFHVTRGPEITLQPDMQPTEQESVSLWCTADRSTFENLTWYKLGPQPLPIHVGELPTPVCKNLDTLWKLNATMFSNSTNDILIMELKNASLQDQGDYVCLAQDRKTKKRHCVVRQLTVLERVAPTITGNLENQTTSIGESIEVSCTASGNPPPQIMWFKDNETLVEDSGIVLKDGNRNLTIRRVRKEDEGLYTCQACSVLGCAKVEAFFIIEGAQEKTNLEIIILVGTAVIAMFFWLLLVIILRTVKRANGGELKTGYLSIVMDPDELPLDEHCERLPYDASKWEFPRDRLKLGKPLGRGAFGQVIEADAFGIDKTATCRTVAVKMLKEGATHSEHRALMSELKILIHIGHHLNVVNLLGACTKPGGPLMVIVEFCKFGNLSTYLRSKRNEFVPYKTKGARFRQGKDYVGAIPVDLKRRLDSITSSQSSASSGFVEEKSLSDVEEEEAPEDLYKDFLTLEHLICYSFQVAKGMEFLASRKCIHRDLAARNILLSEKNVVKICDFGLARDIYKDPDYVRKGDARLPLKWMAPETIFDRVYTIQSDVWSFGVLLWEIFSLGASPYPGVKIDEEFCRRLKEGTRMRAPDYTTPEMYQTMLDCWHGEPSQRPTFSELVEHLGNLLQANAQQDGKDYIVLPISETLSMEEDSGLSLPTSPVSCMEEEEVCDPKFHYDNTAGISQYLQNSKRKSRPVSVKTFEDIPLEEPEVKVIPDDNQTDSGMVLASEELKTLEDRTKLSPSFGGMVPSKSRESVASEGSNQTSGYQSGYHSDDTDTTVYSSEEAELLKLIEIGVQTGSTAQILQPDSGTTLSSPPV
Chain of Tyrosine-protein kinase ABL1 (P00519 whole entry): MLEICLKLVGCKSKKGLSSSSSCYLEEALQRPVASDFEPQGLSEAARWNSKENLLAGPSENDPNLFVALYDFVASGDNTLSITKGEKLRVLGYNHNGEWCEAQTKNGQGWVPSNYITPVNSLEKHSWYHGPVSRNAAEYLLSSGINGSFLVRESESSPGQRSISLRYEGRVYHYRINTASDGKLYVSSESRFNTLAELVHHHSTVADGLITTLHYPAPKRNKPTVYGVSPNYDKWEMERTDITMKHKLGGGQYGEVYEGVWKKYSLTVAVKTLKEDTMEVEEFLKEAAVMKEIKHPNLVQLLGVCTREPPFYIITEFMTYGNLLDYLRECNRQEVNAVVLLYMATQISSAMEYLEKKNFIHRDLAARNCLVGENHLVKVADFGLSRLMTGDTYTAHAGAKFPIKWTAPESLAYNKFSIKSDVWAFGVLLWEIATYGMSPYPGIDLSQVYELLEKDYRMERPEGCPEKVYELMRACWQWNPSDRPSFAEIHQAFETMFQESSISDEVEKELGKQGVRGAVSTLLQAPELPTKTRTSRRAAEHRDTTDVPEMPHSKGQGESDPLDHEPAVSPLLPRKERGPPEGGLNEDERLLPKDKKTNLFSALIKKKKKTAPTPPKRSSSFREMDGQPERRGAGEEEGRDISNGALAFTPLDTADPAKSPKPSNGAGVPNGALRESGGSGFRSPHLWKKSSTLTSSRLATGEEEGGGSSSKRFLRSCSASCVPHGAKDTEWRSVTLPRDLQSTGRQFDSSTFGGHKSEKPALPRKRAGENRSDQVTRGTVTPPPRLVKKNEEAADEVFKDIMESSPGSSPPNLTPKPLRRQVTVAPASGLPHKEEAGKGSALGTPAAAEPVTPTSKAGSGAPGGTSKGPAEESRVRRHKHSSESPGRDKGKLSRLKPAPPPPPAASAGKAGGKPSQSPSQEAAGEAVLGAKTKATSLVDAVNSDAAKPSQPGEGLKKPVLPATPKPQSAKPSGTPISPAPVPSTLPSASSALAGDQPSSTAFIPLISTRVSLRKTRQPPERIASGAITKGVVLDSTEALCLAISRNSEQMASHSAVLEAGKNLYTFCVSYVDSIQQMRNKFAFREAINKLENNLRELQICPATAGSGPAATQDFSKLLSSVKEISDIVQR

| Compound | IC50 [1] | IC50 [2] | IC50 [3] |
| --- | --- | --- | --- |
| Cc1cc(NS(=O)(=O)c2ccc(Nc3nccc(Nc4ccc5c(C)n(C)nc5c4)n3)cc2)no1 [4-((4-((2,3-dimethyl-2H-indazole-6-yl)amino)pyrimidin-2-yl)amino)-N-(5-methylisoxazol-3-yl) benzenesulfonamide (P1f)] | 2180 nM | 1630 nM | – |
| Cc1cc(C)nc(NS(=O)(=O)c2ccc(Nc3nccc(N(C)c4ccc5c(C)n(C)nc5c4)n3)cc2)n1 [4-((4-((2,3-dimethyl-2H-indazole-6-yl)(methyl)amino)pyrimidin-2-yl)amino)-N-(4,6-dimethylpyrimidin-2-yl)benzenesulfonamide (P2e)] | 22 nM | 12 nM | – |
| Cc1c2ccc(Nc3ccnc(Nc4ccc(S(=O)(=O)NC(=N)N)cc4)n3)cc2nn1C [N-carbamimidoyl-4-((4-((2,3-dimethyl-2H-indazole-6-yl)amino)pyrimidin-2-yl)amino) benzenesulfonamide (P1g)] | 930 nM | 1340 nM | – |
| Cc1cc(C)nc(NS(=O)(=O)c2ccc(Nc3nccc(Nc4ccc5c(C)n(C)nc5c4)n3)cc2)n1 [4-((4-((2,3-dimethyl-2H-indazole-6-yl)amino)pyrimidin-2-yl)amino)-N-(4,6-dimethylpyrimidin-2-yl)benzenesulfonamide (P1e)] | 360 nM | 120 nM | – |
| Cc1c2ccc(Nc3ccnc(Nc4ccc(S(=O)(=O)Nc5ncccn5)cc4)n3)cc2nn1C [4-((4-((2,3-dimethyl-2H-indazole-6-yl)amino)pyrimidin-2-yl)amino)-N-(pyrimidin-2-yl) benzenesulfonamide (P1c)] | 460 nM | 34 nM | – |
| Cc1c2ccc(N(C)c3ccnc(Nc4ccc(S(=O)(=O)NC(=N)N)cc4)n3)cc2nn1C [N-carbamimidoyl-4-((4-((2,3-dimethyl-2H-indazole-6-yl)(methyl)amino)pyrimidin-2-yl)amino) benzenesulfonamide (P2g)] | 360 nM | 720 nM | 1370 nM |
| Cc1cc(NS(=O)(=O)c2ccc(Nc3nccc(N(C)c4ccc5c(C)n(C)nc5c4)n3)cc2)no1 [4-((4-((2,3-dimethyl-2H-indazole-6-yl)(methyl)amino)pyrimidin-2-yl)amino)-N-(5-methylisoxazol-3-yl)benzenesulfonamide (P2f)] | 320 nM | 650 nM | – |
| Cc1c2ccc(N(C)c3ccnc(Nc4ccc(S(=O)(=O)Nc5ncccn5)cc4)n3)cc2nn1C [4-((4-((2,3-dimethyl-2H-indazole-6-yl)(methyl)amino)pyrimidin-2-yl)amino)-N-(pyrimidin-2-yl) benzenesulfonamide (P2c)] | 120 nM | 29 nM | – |
| Cc1ccnc(NS(=O)(=O)c2ccc(Nc3nccc(N(C)c4ccc5c(C)n(C)nc5c4)n3)cc2)n1 [4-((4-((2,3-dimethyl-2H-indazole-6-yl)(methyl)amino)pyrimidin-2-yl)amino)-N-(4-methylpyrimidin-2-yl)benzenesulfonamide (P2d)] | 62 nM | 25 nM | – |
| Cc1ccnc(NS(=O)(=O)c2ccc(Nc3nccc(Nc4ccc5c(C)n(C)nc5c4)n3)cc2)n1 [4-((4-((2,3-dimethyl-2H-indazole-6-yl)amino)pyrimidin-2-yl)amino)-N-(4-methylpyrimidin-2-yl) benzenesulfonamide (P1d)] | 280 nM | 160 nM | – |
